What was measured:
Assay in all cases: radiometric filter-binding kinase assay, Kinase HotSpot
Conditions in all cases: compound 0.5 µM; ATP 10 µM
PRKCD (human) = PRKCD (human) (UniProt Q05655)
PASK (human) = PASK (human) (UniProt Q96RG2)
FES (human) = FES (human) (UniProt P07332)
PRKD2 (human) = PRKD2 (human) (UniProt Q9BZL6)
RIPK2 (human) = RIPK2 (human) (UniProt O43353)
PHKG1 (human) = PHKG1 (human) (UniProt Q16816)
MAP3K2 (human) = MAP3K2 (human) (UniProt Q9Y2U5)
BTK (human) = BTK (human) (UniProt Q06187)
RPS6KB1 (human) = RPS6KB1 (human) (UniProt P23443)
MAP3K5 (human) = MAP3K5 (human) (UniProt Q99683)
Chain of MAP3K5 (human) (Q99683 whole entry, looked up): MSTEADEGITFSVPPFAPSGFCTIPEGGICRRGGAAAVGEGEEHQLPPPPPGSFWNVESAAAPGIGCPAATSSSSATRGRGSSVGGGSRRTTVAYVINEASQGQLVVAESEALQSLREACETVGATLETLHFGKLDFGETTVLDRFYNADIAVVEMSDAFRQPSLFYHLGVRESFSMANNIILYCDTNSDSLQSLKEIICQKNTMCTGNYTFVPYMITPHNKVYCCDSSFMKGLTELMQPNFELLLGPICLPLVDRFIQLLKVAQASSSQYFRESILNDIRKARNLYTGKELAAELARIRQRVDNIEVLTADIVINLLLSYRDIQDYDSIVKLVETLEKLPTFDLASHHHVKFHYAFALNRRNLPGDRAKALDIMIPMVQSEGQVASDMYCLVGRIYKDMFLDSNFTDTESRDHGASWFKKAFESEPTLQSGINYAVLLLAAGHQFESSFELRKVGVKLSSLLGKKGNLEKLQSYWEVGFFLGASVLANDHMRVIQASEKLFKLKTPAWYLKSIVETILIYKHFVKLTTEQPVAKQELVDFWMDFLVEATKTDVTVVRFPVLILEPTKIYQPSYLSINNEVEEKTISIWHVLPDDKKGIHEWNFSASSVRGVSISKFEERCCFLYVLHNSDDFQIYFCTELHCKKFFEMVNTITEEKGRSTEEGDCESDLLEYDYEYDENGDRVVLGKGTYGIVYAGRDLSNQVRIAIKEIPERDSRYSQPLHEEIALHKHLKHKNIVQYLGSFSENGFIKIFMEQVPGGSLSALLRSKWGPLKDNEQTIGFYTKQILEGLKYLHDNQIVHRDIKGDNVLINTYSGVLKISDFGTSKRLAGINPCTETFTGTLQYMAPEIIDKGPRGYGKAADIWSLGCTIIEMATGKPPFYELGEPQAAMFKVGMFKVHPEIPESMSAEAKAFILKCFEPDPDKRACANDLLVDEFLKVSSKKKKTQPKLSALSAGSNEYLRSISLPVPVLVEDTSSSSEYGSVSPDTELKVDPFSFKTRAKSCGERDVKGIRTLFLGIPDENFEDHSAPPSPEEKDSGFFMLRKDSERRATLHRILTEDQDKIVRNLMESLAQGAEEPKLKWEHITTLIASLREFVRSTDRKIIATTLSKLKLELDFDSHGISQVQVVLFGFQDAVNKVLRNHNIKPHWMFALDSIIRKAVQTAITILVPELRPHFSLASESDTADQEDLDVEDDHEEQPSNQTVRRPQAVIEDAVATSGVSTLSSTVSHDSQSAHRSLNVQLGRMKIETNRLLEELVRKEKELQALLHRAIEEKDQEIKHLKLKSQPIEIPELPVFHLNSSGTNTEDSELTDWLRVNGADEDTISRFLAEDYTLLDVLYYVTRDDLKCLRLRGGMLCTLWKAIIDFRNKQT

EPHA4 (human) = EPHA4 (human) (UniProt P54764)
PRKG2 (human) = PRKG2 (human) (UniProt Q13237)
Chain of PRKG2 (human) (Q13237 whole entry, looked up): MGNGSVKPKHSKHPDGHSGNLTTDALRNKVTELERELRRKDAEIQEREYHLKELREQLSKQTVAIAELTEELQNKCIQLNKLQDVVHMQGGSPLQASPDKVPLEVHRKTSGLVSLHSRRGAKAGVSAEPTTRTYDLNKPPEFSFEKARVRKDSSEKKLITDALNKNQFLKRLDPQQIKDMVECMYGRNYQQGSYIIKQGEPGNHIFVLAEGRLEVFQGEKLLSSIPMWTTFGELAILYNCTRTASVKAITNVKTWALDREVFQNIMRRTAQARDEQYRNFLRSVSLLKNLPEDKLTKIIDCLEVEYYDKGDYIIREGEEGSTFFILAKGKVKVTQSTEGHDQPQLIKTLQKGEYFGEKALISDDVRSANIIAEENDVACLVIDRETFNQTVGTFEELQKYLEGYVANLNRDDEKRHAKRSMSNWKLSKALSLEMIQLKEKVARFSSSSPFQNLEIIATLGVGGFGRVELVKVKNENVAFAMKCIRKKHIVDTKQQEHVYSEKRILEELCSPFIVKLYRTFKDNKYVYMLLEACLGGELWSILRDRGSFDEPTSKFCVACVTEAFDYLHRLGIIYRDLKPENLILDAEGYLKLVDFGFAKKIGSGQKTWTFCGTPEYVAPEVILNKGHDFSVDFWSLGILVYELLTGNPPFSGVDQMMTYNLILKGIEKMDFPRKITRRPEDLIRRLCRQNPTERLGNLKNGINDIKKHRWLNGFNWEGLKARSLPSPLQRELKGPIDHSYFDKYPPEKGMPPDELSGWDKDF

VRK1 (human) = VRK1 (human) (UniProt Q99986)
TAOK1 (human) = TAOK1 (human) (UniProt Q7L7X3)
DAPK1 (human) = DAPK1 (human) (UniProt P53355)
Chain of DAPK1 (human) (P53355 whole entry, looked up): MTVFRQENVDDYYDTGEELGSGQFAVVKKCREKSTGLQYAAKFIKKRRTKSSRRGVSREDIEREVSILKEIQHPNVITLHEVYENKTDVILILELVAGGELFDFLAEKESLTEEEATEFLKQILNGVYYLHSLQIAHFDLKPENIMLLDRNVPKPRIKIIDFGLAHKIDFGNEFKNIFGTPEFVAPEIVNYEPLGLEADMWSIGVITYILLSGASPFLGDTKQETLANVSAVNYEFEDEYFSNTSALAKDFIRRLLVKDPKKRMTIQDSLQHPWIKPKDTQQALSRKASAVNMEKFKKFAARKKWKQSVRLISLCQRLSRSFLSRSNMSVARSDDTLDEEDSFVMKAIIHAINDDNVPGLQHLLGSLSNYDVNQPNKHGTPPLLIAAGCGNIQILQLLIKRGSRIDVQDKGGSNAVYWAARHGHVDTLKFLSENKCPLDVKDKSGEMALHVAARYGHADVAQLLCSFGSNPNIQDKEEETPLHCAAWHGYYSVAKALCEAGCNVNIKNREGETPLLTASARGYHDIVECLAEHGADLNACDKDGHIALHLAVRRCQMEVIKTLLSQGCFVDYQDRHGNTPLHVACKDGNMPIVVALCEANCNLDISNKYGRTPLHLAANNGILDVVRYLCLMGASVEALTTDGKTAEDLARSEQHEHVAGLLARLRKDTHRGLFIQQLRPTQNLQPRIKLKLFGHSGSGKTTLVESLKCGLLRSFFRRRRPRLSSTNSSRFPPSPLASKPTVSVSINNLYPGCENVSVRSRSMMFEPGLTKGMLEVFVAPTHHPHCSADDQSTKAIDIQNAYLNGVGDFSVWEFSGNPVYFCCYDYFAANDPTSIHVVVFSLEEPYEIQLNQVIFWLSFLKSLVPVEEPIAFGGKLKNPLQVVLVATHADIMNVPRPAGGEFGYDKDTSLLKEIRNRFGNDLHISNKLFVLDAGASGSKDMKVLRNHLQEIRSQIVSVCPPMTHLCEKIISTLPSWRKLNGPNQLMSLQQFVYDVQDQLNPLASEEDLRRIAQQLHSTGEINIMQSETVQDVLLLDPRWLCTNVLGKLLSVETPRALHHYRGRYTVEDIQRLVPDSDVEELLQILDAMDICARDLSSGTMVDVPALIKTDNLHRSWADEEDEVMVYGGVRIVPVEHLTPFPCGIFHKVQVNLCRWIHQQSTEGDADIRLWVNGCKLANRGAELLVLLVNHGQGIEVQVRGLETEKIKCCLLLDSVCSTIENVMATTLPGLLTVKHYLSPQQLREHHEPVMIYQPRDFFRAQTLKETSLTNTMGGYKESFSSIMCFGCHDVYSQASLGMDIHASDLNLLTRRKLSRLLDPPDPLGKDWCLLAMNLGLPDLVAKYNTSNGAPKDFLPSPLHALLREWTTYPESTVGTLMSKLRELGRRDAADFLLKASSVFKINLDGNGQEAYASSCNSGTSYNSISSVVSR

SYK (human) = SYK (human) (UniProt P43405)
DAPK2 (human) = DAPK2 (human) (UniProt Q9UIK4)
AXL (human) = AXL (human) (UniProt P30530)
MAP3K9 (human) = MAP3K9 (human) (UniProt P80192)
CSNK1D (human) = CSNK1D (human) (UniProt P48730)
CDK3 CCNE1 (human) = CDK3 CCNE1 (human) (UniProt Q00526+P24864)
TGFBR2 (human) = TGFBR2 (human) (UniProt P37173)
DYRK3 (human) = DYRK3 (human) (UniProt O43781)
RPS6KA2 KD1 KD2 (human) = RPS6KA2 KD1 KD2 (human) (UniProt Q15349)
CAMK2A (human) = CAMK2A (human) (UniProt Q9UQM7)
PTK2 (human) = PTK2 (human) (UniProt Q05397)
Chain of PTK2 (human) (Q05397 whole entry, looked up): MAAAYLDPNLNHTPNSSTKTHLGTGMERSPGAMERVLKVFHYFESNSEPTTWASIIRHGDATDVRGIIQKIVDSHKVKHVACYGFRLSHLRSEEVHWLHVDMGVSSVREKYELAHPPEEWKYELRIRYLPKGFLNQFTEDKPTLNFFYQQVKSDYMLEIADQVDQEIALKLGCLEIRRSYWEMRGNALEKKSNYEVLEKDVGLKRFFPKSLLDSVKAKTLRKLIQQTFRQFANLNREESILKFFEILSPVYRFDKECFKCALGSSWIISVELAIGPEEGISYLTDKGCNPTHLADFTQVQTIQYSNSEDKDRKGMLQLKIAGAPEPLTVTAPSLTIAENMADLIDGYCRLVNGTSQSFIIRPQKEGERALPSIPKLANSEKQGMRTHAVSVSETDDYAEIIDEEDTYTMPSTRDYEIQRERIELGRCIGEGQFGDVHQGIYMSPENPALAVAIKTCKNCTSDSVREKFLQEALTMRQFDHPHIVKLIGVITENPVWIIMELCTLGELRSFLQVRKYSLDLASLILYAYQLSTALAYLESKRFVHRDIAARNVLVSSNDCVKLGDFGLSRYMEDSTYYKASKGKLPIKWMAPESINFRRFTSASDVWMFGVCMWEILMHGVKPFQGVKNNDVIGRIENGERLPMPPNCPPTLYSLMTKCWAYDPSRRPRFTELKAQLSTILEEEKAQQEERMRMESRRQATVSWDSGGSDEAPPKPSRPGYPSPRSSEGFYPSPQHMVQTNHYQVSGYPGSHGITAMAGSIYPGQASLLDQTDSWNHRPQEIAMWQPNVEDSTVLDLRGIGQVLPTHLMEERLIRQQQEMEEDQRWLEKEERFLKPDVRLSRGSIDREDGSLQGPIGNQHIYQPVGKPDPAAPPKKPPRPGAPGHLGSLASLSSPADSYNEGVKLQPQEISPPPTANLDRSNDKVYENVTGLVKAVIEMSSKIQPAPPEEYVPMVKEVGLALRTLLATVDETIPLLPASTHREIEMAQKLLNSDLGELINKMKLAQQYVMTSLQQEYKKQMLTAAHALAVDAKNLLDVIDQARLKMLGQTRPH

CDK7 CCNH MNAT1 (human) = CDK7 CCNH MNAT1 (human) (UniProt P50613+P51948+P51946)
PDGFRB (human) = PDGFRB (human) (UniProt P09619)
MAP4K4 (human) = MAP4K4 (human) (UniProt O95819)
MAP3K7 TAB1 (human) = MAP3K7 TAB1 (human) (UniProt O43318+Q15750)
AURKC (human) = AURKC (human) (UniProt Q9UQB9)
LIMK1 (human) = LIMK1 (human) (UniProt P53667)
SRPK2 (human) = SRPK2 (human) (UniProt P78362)
CAMK1D (human) = CAMK1D (human) (UniProt Q8IU85)
NEK3 (human) = NEK3 (human) (UniProt P51956)
AKT3 (human) = AKT3 (human) (UniProt Q9Y243)
MAPK12 (human) = MAPK12 (human) (UniProt P53778)
Chain of MAPK12 (human) (P53778 whole entry, looked up): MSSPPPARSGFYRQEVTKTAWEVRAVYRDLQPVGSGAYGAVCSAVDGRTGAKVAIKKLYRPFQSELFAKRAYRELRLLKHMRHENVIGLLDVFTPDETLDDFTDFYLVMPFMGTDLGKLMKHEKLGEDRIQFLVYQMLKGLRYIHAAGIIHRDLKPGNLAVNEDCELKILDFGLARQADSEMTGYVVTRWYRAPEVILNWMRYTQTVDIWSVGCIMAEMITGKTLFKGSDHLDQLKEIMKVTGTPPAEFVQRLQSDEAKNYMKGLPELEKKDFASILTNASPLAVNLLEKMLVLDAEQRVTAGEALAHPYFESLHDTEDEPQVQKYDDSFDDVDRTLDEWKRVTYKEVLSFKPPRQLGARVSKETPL

STK16 (human) = STK16 (human) (UniProt O75716)
CAMK2D (human) = CAMK2D (human) (UniProt Q13557)
STK24 (human) = STK24 (human) (UniProt Q9Y6E0)
ACVR1B (human) = ACVR1B (human) (UniProt P36896)
INSRR (human) = INSRR (human) (UniProt P14616)

CCN(CC)CCCCN1c2ccccc2Oc2ccc(Cl)cc21 gave a residual activity (PRKCD (human)) of 95.4%, a residual activity (PASK (human)) of 76.6% and a residual activity (FES (human)) of 99.8%. For the same compound, the residual activity (PRKD2 (human)) was 105%, the residual activity (RIPK2 (human)) was 89.7% and the residual activity (PHKG1 (human)) was 96.5%. The residual activity (MAP3K2 (human)) was 88.2%, the residual activity (BTK (human)) was 99.2% and the residual activity (RPS6KB1 (human)) was 97.7%. It also gave a residual activity (MAP3K5 (human)) of 106%, a residual activity (EPHA4 (human)) of 91.9% and a residual activity (PRKG2 (human)) of 94.4%. For the same compound, the residual activity (VRK1 (human)) was 101%, the residual activity (TAOK1 (human)) was 97.9% and the residual activity (DAPK1 (human)) was 76.6%. For the same compound, the residual activity (SYK (human)) was 97.6%, the residual activity (DAPK2 (human)) was 99% and the residual activity (AXL (human)) was 95.2%. The residual activity (MAP3K9 (human)) was 95.7%, the residual activity (CSNK1D (human)) was 105% and the residual activity (CDK3 CCNE1 (human)) was 90.3%. The residual activity (TGFBR2 (human)) was 96%, the residual activity (DYRK3 (human)) was 99% and the residual activity (RPS6KA2 KD1 KD2 (human)) was 88%. It also gave a residual activity (CAMK2A (human)) of 104%, a residual activity (PTK2 (human)) of 108% and a residual activity (CDK7 CCNH MNAT1 (human)) of 99%. It also gave a residual activity (PDGFRB (human)) of 103%, a residual activity (MAP4K4 (human)) of 104% and a residual activity (MAP3K7 TAB1 (human)) of 102%. For the same compound, the residual activity (AURKC (human)) was 99.3%, the residual activity (LIMK1 (human)) was 94.3% and the residual activity (SRPK2 (human)) was 109%. It also gave a residual activity (CAMK1D (human)) of 107%, a residual activity (NEK3 (human)) of 103% and a residual activity (AKT3 (human)) of 103%. It also gave a residual activity (MAPK12 (human)) of 97.4%, a residual activity (STK16 (human)) of 95.2% and a residual activity (CAMK2D (human)) of 105%. The residual activity (STK24 (human)) was 90%, the residual activity (ACVR1B (human)) was 105% and the residual activity (INSRR (human)) was 102%.
In the case of COc1ccc(OC)c2c(=S)c3ccccc3[nH]c12, the residual activity (PRKCD (human)) is reported as 103%, the residual activity (PASK (human)) is reported as 90.1% and the residual activity (FES (human)) is reported as 102%. It also gave a residual activity (PRKD2 (human)) of 88.1%, a residual activity (RIPK2 (human)) of 108% and a residual activity (PHKG1 (human)) of 83%. It also gave a residual activity (MAP3K2 (human)) of 101%, a residual activity (BTK (human)) of 102% and a residual activity (RPS6KB1 (human)) of 99.4%. The residual activity (MAP3K5 (human)) was 115%, the residual activity (EPHA4 (human)) was 88.8% and the residual activity (PRKG2 (human)) was 62.2%. For the same compound, the residual activity (VRK1 (human)) was 100%, the residual activity (TAOK1 (human)) was 95.7% and the residual activity (DAPK1 (human)) was 106%. For the same compound, the residual activity (SYK (human)) was 100%, the residual activity (DAPK2 (human)) was 94% and the residual activity (AXL (human)) was 103%. It also gave a residual activity (MAP3K9 (human)) of 102%, a residual activity (CSNK1D (human)) of 101% and a residual activity (CDK3 CCNE1 (human)) of 87.7%. The residual activity (TGFBR2 (human)) was 109%, the residual activity (DYRK3 (human)) was 98.2% and the residual activity (RPS6KA2 KD1 KD2 (human)) was 87.4%. It also gave a residual activity (CAMK2A (human)) of 100%, a residual activity (PTK2 (human)) of 106% and a residual activity (CDK7 CCNH MNAT1 (human)) of 91.7%. The residual activity (PDGFRB (human)) was 98.1%, the residual activity (MAP4K4 (human)) was 101% and the residual activity (MAP3K7 TAB1 (human)) was 98.8%. For the same compound, the residual activity (AURKC (human)) was 88.2%, the residual activity (LIMK1 (human)) was 108% and the residual activity (SRPK2 (human)) was 95.1%. For the same compound, the residual activity (CAMK1D (human)) was 104%, the residual activity (NEK3 (human)) was 107% and the residual activity (AKT3 (human)) was 92%. It also gave a residual activity (MAPK12 (human)) of 98.1%, a residual activity (STK16 (human)) of 90% and a residual activity (CAMK2D (human)) of 89.8%. It also gave a residual activity (STK24 (human)) of 78.9%, a residual activity (ACVR1B (human)) of 108% and a residual activity (INSRR (human)) of 88.7%.
